One block for each compound: values may come before it. Calls of active or inactive are those of the source. No cut-off for these calls is given here.
What was measured:
Rattus norvegicus [1] = assay: In vivo inhibition of beta adrenoceptor in Wistar rat assessed as reduction in isoprenaline-induced tachycardia at 1 mg/kg, iv administered as single dose 10 mins prior to isoprenaline injection; format: functional, organism-based
Rattus norvegicus [2] = assay: Antiarrhythmic activity in Wistar rat assessed as inhibition of adrenaline-induced premature ventricular extrasystoles administered iv 15 mins prior to adrenaline challenge; format: functional
Blood [3] = assay: Anti-aggregative activity in Wistar rat whole blood assessed as inhibition of collagen-induced aggregation up to 100 uM preincubated for 3 mins followed by collagen induction measured for 6 mins; format: functional, tissue-based
Blood [4] = assay: Anti-aggregative activity in Wistar rat whole blood assessed as inhibition of collagen/adrenaline-induced aggregation up to 100 uM preincubated for 3 mins followed by collagen induction measured for 6 mins; format: functional, tissue-based
[5] = molecular target: Adrenergic receptor alpha-1 (Rattus norvegicus) (UniProt P15823+P23944+P43140); assay: Displacement of [3H][…]prazosin from adrenergic alpha1 receptor in Wistar rat cortex at 10^-5 M incubated for 30 mins by microbeta liquid scintillation counting analysis
[6] = molecular target: Adrenergic receptor alpha-2 (Rattus norvegicus) (UniProt P22086+P19328+P22909); assay: Displacement of [3H]-clonidine from adrenergic alpha2 receptor in Wistar rat cortex at 10^-5 M incubated for 25 mins by microbeta liquid scintillation counting analysis
[7] = molecular target: Beta-1 adrenergic receptor (Rattus norvegicus, UniProt P18090); assay: Displacement of [3H]-CGP-12177 from adrenergic beta1 receptor in Wistar rat cortex incubated for 60 mins by microbeta liquid scintillation counting analysis
Sequence of Beta-1 adrenergic receptor (P18090 whole entry): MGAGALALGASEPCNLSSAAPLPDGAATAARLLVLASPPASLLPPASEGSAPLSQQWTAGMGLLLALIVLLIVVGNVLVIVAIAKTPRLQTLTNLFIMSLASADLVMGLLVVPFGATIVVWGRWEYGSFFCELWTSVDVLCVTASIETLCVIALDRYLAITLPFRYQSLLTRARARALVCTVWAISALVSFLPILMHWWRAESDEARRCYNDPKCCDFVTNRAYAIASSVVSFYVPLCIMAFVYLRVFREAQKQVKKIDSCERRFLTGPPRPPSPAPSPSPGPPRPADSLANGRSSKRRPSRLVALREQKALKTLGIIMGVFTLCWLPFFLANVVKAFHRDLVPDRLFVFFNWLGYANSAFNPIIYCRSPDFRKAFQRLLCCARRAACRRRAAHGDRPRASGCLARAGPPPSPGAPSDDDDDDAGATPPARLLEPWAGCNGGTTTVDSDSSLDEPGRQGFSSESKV

[8] = molecular target: Beta-2 adrenergic receptor (Cavia porcellus, UniProt Q8K4Z4); assay: Antagonist activity at adrenergic beta2 receptor in isolated guinea pig trachea assessed as inhibition of isoprenaline-induced bronchodilation incubated for 20 mins; format: functional; conditions: read-out: pA2 (converted)
Sequence of Beta-2 adrenergic receptor (Q8K4Z4 whole entry): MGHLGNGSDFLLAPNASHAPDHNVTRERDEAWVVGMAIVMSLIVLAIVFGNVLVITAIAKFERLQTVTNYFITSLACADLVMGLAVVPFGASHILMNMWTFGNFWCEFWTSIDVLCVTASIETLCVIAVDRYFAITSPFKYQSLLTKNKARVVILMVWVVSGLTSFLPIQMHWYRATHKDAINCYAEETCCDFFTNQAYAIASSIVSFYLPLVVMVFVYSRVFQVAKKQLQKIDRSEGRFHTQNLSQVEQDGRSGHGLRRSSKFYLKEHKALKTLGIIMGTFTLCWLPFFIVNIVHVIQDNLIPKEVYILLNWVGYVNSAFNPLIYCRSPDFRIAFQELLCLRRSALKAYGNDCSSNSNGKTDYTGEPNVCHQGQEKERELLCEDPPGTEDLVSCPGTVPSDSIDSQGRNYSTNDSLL

Rattus norvegicus [9] = assay: In vivo inhibition of beta adrenoceptor in Wistar rat assessed as reduction in isoprenaline-induced tachycardia at 5 mg/kg, iv administered as single dose 10 mins prior to isoprenaline injection; format: functional, organism-based
Rattus norvegicus [10] = assay: Hypotensive activity in normotensive Wistar rat assessed as systolic blood pressure at 5 mg/kg, iv measured after 5 mins (reference value: 119.2 to 148.6 mmHg); format: functional
Rattus norvegicus [11] = assay: Hypotensive activity in normotensive Wistar rat assessed as diastolic blood pressure at 5 mg/kg, iv measured after 5 mins (reference value: 86.5 to 119.4 mmHg); format: functional
Rattus norvegicus [12] = assay: Hypotensive activity in normotensive Wistar rat assessed as systolic blood pressure at 5 mg/kg, iv measured after 10 mins (reference value: 119.2 to 148.6 mmHg); format: functional
Rattus norvegicus [13] = assay: Hypotensive activity in normotensive Wistar rat assessed as diastolic blood pressure at 5 mg/kg, iv measured after 10 mins (reference value: 86.5 to 119.4 mmHg); format: functional
Rattus norvegicus [14] = assay: Hypotensive activity in normotensive Wistar rat assessed as systolic blood pressure at 5 mg/kg, iv measured after 20 mins (reference value: 119.2 to 148.6 mmHg); format: functional
Rattus norvegicus [15] = assay: Hypotensive activity in normotensive Wistar rat assessed as diastolic blood pressure at 5 mg/kg, iv measured after 20 mins (reference value: 86.5 to 119.4 mmHg); format: functional
Rattus norvegicus [16] = assay: Hypotensive activity in normotensive Wistar rat assessed as systolic blood pressure at 5 mg/kg, iv measured after 30 mins (reference value: 119.2 to 148.6 mmHg); format: functional
Rattus norvegicus [17] = assay: Hypotensive activity in normotensive Wistar rat assessed as diastolic blood pressure at 5 mg/kg, iv measured after 30 mins (reference value: 86.5 to 119.4 mmHg); format: functional
Rattus norvegicus [18] = assay: Hypotensive activity in normotensive Wistar rat assessed as systolic blood pressure at 5 mg/kg, iv measured after 60 mins (reference value: 119.2 to 148.6 mmHg); format: functional
Rattus norvegicus [19] = assay: Hypotensive activity in normotensive Wistar rat assessed as diastolic blood pressure at 5 mg/kg, iv measured after 60 mins (reference value: 86.5 to 119.4 mmHg); format: functional
Rattus norvegicus [20] = assay: Hypotensive activity in normotensive Wistar rat assessed as reduction in systolic blood pressure administered iv measured after 60 mins; format: functional
Rattus norvegicus [21] = assay: Cardiotoxicity in Wistar rat assessed as effect on heart rate at 5 mg/kg, iv measured after 1 min (reference value: 323 to 374.5 bpm); format: toxicity, organism-based; conditions: in vivo
Rattus norvegicus [22] = assay: Cardiotoxicity in Wistar rat assessed as effect on PQ interval time at 5 mg/kg, iv measured after 1 min (reference value: 52 to 57 ms); format: toxicity, organism-based; conditions: in vivo
Rattus norvegicus [23] = assay: Cardiotoxicity in Wistar rat assessed as effect on QRS interval time at 5 mg/kg, iv measured after 1 min (reference value: 16.7 to 20.7 ms); format: toxicity, organism-based; conditions: in vivo
Rattus norvegicus [24] = assay: Cardiotoxicity in Wistar rat assessed as effect on QT interval time at 5 mg/kg, iv measured after 1 min (reference value: 57.7 to 61 ms); format: toxicity, organism-based; conditions: in vivo
Rattus norvegicus [25] = assay: Cardiotoxicity in Wistar rat assessed as effect on QTC interval time at 5 mg/kg, iv measured after 1 min (reference value: 136.7 to 146.2 ms); format: toxicity, organism-based; conditions: in vivo
Rattus norvegicus [26] = assay: Cardiotoxicity in Wistar rat assessed as effect on heart rate at 5 mg/kg, iv measured after 5 mins (reference value: 323 to 374.5 bpm); format: toxicity, organism-based; conditions: in vivo
Rattus norvegicus [27] = assay: Cardiotoxicity in Wistar rat assessed as effect on PQ interval time at 5 mg/kg, iv measured after 5 mins (reference value: 52 to 57 ms); format: toxicity, organism-based; conditions: in vivo
Rattus norvegicus [28] = assay: Cardiotoxicity in Wistar rat assessed as effect on QRS interval time at 5 mg/kg, iv measured after 5 mins (reference value: 16.7 to 20.7 ms); format: toxicity, organism-based; conditions: in vivo
Rattus norvegicus [29] = assay: Cardiotoxicity in Wistar rat assessed as effect on QT interval time at 5 mg/kg, iv measured after 5 mins (reference value: 57.7 to 61 ms); format: toxicity, organism-based; conditions: in vivo
Rattus norvegicus [30] = assay: Cardiotoxicity in Wistar rat assessed as effect on QTC interval time at 5 mg/kg, iv measured after 5 mins (reference value: 136.7 to 146.2 ms); format: toxicity, organism-based; conditions: in vivo
Rattus norvegicus [31] = assay: Cardiotoxicity in Wistar rat assessed as effect on heart rate at 5 mg/kg, iv measured after 15 mins (reference value: 323 to 374.5 bpm); format: toxicity, organism-based; conditions: in vivo, 0.25 h
Rattus norvegicus [32] = assay: Cardiotoxicity in Wistar rat assessed as effect on PQ interval time at 5 mg/kg, iv measured after 15 mins (reference value: 52 to 57 ms); format: toxicity, organism-based; conditions: in vivo, 0.25 h
Rattus norvegicus [33] = assay: Cardiotoxicity in Wistar rat assessed as effect on QRS interval time at 5 mg/kg, iv measured after 15 mins (reference value: 16.7 to 20.7 ms); format: toxicity, organism-based; conditions: in vivo, 0.25 h
Rattus norvegicus [34] = assay: Cardiotoxicity in Wistar rat assessed as effect on QT interval time at 5 mg/kg, iv measured after 15 mins (reference value: 57.7 to 61 ms); format: toxicity, organism-based; conditions: in vivo, 0.25 h
Rattus norvegicus [35] = assay: Cardiotoxicity in Wistar rat assessed as effect on QTC interval time at 5 mg/kg, iv measured after 15 mins (reference value: 136.7 to 146.2 ms); format: toxicity, organism-based; conditions: in vivo, 0.25 h
Blood [36] = assay: Anti-aggregative activity in Wistar rat whole blood assessed as inhibition of collagen-induced aggregation preincubated for 3 mins followed by collagen induction measured for 6 mins; format: functional, tissue-based
[37] = (§1) Inhibition of voltage gated calcium channel in Wistar rat aorta assessed as relaxation of KCl-precontracted aortic rings by measuring reduction in calcium entry in presence of phentolamine
Rattus norvegicus [38] = organism: Rattus norvegicus; assay: as §1

Compound: COc1ccccc1OCCNCC(O)COc1cccc2[nH]c3ccccc3c12 (stereo unspecified) [CARVEDILOL]
inhibition (Rattus norvegicus [1]): Active
ED50 (Rattus norvegicus [2]): 1.05 mg/kg
inhibition (Blood [3]): inactive
inhibition (Blood [4]): inactive

Compound: CC(C)NCC(O)COc1cccc2ccccc12 (stereo unspecified) [PROPRANOLOL]
ED50 (Rattus norvegicus [2]): 0.36 mg/kg

Activity [5]: inactive
Activity [6]: inactive
IC50 [7]: 785 nM
Kb [8]: 655 nM
IC50 (Blood [36]): 62700 nM
Compound: Cc1cccc2c(=O)c3ccc(OCC(O)CNC(C)(C)C)cc3oc12.Cl (racemic)
inhibition (Rattus norvegicus [9]): Active
Activity (Rattus norvegicus [10]): 166.6 mmHg
Activity (Rattus norvegicus [11]): 129.2 mmHg
Activity (Rattus norvegicus [12]): 159.2 mmHg
Activity (Rattus norvegicus [13]): 125 mmHg
Activity (Rattus norvegicus [14]): 160 mmHg
Activity (Rattus norvegicus [15]): 126 mmHg
Activity (Rattus norvegicus [16]): 155.8 mmHg
Activity (Rattus norvegicus [17]): 123.8 mmHg
Activity (Rattus norvegicus [18]): 144 mmHg
Activity (Rattus norvegicus [19]): 114 mmHg
Activity (Rattus norvegicus [20]): inactive
Activity (Rattus norvegicus [21]): 337 bpm
Time (Rattus norvegicus [22]): 60.5 ms
Time (Rattus norvegicus [23]): 18 ms
Time (Rattus norvegicus [24]): 59 ms
Time (Rattus norvegicus [25]): 139.8 ms
Activity (Rattus norvegicus [26]): 310 bpm
Time (Rattus norvegicus [27]): 59.5 ms
Time (Rattus norvegicus [28]): 18.2 ms
Time (Rattus norvegicus [29]): 59.5 ms
Time (Rattus norvegicus [30]): 135.2 ms
Activity (Rattus norvegicus [31]): 339.2 bpm
Time (Rattus norvegicus [32]): 55.5 ms
Time (Rattus norvegicus [33]): 18.5 ms
Time (Rattus norvegicus [34]): 58.5 ms
Time (Rattus norvegicus [35]): 138.9 ms
inhibition (Blood [36]): Dose-dependent effect

IC50 [37]: 32.9 nM
inhibition (Rattus norvegicus [38]): Dose-dependent effect
inhibition (Rattus norvegicus [38]; concentration not given here): 95%
Compound: COc1ccc(CCN(C)CCCC(C#N)(c2ccc(OC)c(OC)c2)C(C)C)cc1OC (stereo unspecified) [VERAPAMIL]

Reference: ChEMBL document CHEMBL4118148, “Design, synthesis and cardiovascular evaluation of some aminoisopropanoloxy derivatives of xanthone” (Bioorg Med Chem, 2018)
